Measurements from article PMC5534107, “Sensitization of ASIC3 by proteinase-activated receptor 2 signaling contributes to acidosis-induced nociception” (Journal of Neuroinflammation, 2017).

Test system: heteromeric ASIC2b+3 channels expressed with PAR2 in CHO cells
Assay: Whole-cell patch clamp, heteromeric ASIC2b+3 channels expressed with PAR2 in CHO cells
Type: cell-based, Chinese hamster
Conditions: PAR2-AP 10^−5 M for 1 min; I pH 6.6; ASIC3:other subunit 1:3; n = 8
Description: ASIC3, ASIC1a, ASIC1b, ASIC2b, and PAR2 complementary DNAs (cDNAs) were used for heterologous expression in CHO cells as described previously (Wang et al., 2013). In brief, CHO cells were cultured at 37 °C in a humidified atmosphere of 5% CO2 and […] and passaged twice a week. Transient transfection of CHO cells was performed using HilyMax liposome transfection reagent (Dojindo Laboratories). CHO cells were maintained in F-12 Nutrient Mixture (added 1.176 g of NaHCO3/L medium) supplemented with 10% fetal bovine serum and 1% gluta-MAXTM-1 (100×; Invitrogen). When ASIC3 and PAR2 cDNAs were co-transfected, the ratio was kept at 1:1. All plasmids used contained, in addition to the desired ASIC3 cDNA, the coding sequence for enhanced green fluorescent protein to aid identification of transfected cells. Electrophysiological measurements were performed 24–48 h after transfection.
Whole-cell patch clamp and voltage clamp recordings were carried out at room temperature (22–25 °C) using a MultiClamp-700B amplifier and Digidata-1440A A/D converter (Axon Instruments, CA, USA). […]
Drugs purchased from Sigma and used in the experiments include hydrochloric acid, 2-furoyl-LIGRLO-NH2 (a PAR2-activating peptide (PAR2-AP)), trypsin, FSLLRY-NH2, APETx2, and capsazepine. […] The application pipette tips were positioned ∼30 μm away from the recorded neurons. […]

## 2-furoyl-LIGRLO-NH2 [PAR2-AP]
  increase of peak current of heteromeric ASIC2b+3 channels: 68.1 ± 7.3%
